Data reported in patent US9493446B2, “Orexin receptor antagonists which are [ortho bi-(hetero-)aryl]-[2-(meta bi-(hetero-)aryl)-pyrrolidin-1-yl]-methanone derivatives” (Actelion Pharmaceuticals Ltd, priority 2012, dated 2016).
Where two headings read alike, the source gives them in different places.

Legend:
orexin-1 = orexin-1 (Homo sapiens (Human), UniProt O43613); assay: Intracellular calcium measurement (FLIPR), CHO cells expressing human orexin-1 receptor, 3 nM orexin-A; type: cell-based; conditions: read-out: IC50 OX1
How it was run: (§1)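 Fluo-4 AM-loaded CHO cells; antagonist preincubation 120 min, then 3 nM orexin-A (final) in HBSS/0.1% BSA/20 mM HEPES. FLIPR read at 1 s intervals; peak height vs. agonist-plus-vehicle control → IC50.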

human orexin-2 receptor = human orexin-2 receptor (Homo sapiens (Human), UniProt O43614); assay: Intracellular calcium measurement (FLIPR), CHO cells expressing human orexin-2 receptor, 3 nM orexin-A; type: cell-based; conditions: read-out: IC50 OX2
How it was run: as §1

[1] = CHO cells expressing human orexin-1 receptor, FLIPR, 3 nM orexin-A, geometric mean if determined several times
[2] = CHO cells expressing human orexin-2 receptor, FLIPR, 3 nM orexin-A, geometric mean if determined several times

human orexin-2 receptor, sequence (O43614 whole entry): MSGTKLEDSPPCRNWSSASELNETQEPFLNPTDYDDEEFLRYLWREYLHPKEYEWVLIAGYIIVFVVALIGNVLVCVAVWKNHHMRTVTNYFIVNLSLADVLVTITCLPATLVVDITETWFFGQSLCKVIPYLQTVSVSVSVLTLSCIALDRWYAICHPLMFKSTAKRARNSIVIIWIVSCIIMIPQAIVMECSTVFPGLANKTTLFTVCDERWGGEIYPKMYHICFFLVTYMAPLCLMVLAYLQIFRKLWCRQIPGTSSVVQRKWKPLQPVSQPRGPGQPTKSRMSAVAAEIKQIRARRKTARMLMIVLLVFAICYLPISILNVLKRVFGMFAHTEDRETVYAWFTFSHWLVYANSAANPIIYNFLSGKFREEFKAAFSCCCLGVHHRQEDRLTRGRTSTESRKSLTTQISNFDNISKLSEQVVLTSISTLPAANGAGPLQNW
orexin-1, sequence (O43613 whole entry): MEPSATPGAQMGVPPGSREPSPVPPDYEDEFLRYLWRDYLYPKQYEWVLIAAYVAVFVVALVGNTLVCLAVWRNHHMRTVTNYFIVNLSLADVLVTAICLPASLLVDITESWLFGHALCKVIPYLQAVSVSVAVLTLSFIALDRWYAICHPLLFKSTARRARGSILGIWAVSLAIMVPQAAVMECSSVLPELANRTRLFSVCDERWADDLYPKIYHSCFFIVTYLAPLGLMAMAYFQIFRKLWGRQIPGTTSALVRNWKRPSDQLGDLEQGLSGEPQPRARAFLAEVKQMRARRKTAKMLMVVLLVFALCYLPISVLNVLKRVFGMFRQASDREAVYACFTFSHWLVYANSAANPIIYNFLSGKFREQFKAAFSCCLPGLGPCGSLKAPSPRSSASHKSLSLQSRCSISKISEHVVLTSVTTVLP

Compound | IC50 (orexin-1; [1]) [nM] | IC50 (human orexin-2 receptor; [2]) [nM] | IC50 (orexin-1) [nM] | IC50 (human orexin-2 receptor) [nM]
Cc1c(Cl)cccc1-c1noc([C@@H]2CCCN2C(=O)c2ncsc2-c2cccc(Cl)c2)n1 [compound 94] | 237 | 201 |  | 
Cc1ccc(C(=O)N2CCC[C@H]2c2nc(-c3cccc(Cl)c3C)no2)c(-n2nccn2)c1 [compound 96] | 109 | 12 |  | 
Cc1c(Cl)cccc1-c1noc([C@@H]2CCCN2C(=O)c2cc(C(F)(F)F)ccc2-n2nccn2)n1 [compound 97] | 568 | 194 |  | 
Cc1cccc(-n2nccn2)c1C(=O)N1CCC[C@H]1c1nc(-c2cccc(Cl)c2C)no1 [compound 98] | 462 | 127 |  | 
Cc1c(Cl)cccc1-c1noc([C@@H]2CCCN2C(=O)c2cc(OC(F)(F)F)ccc2-n2nccn2)n1 [compound 99] |  | 614 | 895 | 
COc1ccc(-n2nccn2)c(C(=O)N2CCC[C@H]2c2nc(-c3cccc(Cl)c3C)no2)c1 [compound 100] |  | 8 | 92 | 
COc1ccc(-c2ccccc2)c(C(=O)N2CCC[C@H]2c2nc(-c3cccc(Cl)c3C)no2)c1 [compound 101, {(S)-2-[3-(3-Chloro-2-methyl-phenyl)-[1,2,4]oxadiazol-5-yl]-pyrrolidin-1-yl}-(4-methoxy-biphenyl-2-yl)-methanone] | 9 | 6 |  | 
COc1cc(C(=O)N2CCC[C@H]2c2nc(-c3cccc(Cl)c3C)no2)c(-n2nccn2)cc1C [compound 103] | 30 | 2 |  | 
Cc1c(Cl)cccc1-c1noc([C@@H]2CCCN2C(=O)c2cc(F)ccc2-n2nccn2)n1 [compound 104] | 1030 |  |  | 38
COc1cc(C(=O)N2CCC[C@H]2c2nc(-c3cccc(Cl)c3C)no2)c(-n2cccn2)cc1C [compound 105] |  | 8 | 133 | 
COc1ccc(-n2cccn2)c(C(=O)N2CCC[C@H]2c2nc(-c3cccc(Cl)c3C)no2)c1 [compound 106] | 327 | 28 |  | 
Cc1c(Cl)cccc1-c1noc([C@@H]2CCCN2C(=O)c2cccnc2-c2ccccn2)n1 [compound 107] | 1040 | 79 |  | 
Cc1ccc(-n2cccn2)c(C(=O)N2CCC[C@H]2c2nc(-c3cccc(Cl)c3C)no2)n1 [compound 109] |  |  | 976 | 199
Cc1c(Cl)cccc1-c1noc([C@@H]2CCCN2C(=O)c2cc(F)c(F)cc2-n2nccn2)n1 [compound 110] | 1690 | 159 |  | 
Cc1c(Cl)cccc1-c1noc([C@@H]2CCCN2C(=O)c2ccc(F)cc2-n2cccn2)n1 [compound 111] | 1150 | 261 |  | 
Cc1c(Cl)cccc1-c1noc([C@@H]2CCCN2C(=O)c2ccc(F)cc2-n2nccn2)n1 [compound 112] | 833 |  |  | 121
Cc1c(Cl)cccc1-c1noc([C@@H]2CCCN2C(=O)c2cccc(F)c2-n2cccn2)n1 [compound 113] | 1200 | 146 |  | 
Cc1c(Cl)cccc1-c1noc([C@@H]2CCCN2C(=O)c2cccc(F)c2-n2nccn2)n1 [compound 114] |  |  | 1080 | 83
Cc1cc(C(=O)N2CCC[C@H]2c2nc(-c3cccc(Cl)c3C)no2)c(-n2cccn2)cc1C [compound 115] | 78 | 6 |  | 
Cc1c(Cl)cccc1-c1noc([C@@H]2CCCN2C(=O)c2cc(F)ccc2-c2ccn[nH]2)n1 [compound 116] | 457 | 34 |  | 
Cc1c(Cl)cccc1-c1noc([C@@H]2CCCN2C(=O)c2cccc(F)c2-c2ccn[nH]2)n1 [compound 117] |  | 5 | 211 | 
COc1ccc(C(=O)N2CCC[C@H]2c2nc(-c3cccc(Cl)c3C)no2)c(-n2nccn2)c1 [compound 118] |  |  | 260 | 48
Cc1cc(C)c(-n2nccn2)c(C(=O)N2CCC[C@H]2c2nc(-c3cccc(Cl)c3C)no2)c1 [compound 119] | 188 |  |  | 24
Cc1c(Cl)cccc1-c1noc([C@@H]2CCCN2C(=O)c2ccccc2-c2ncco2)n1 [compound 120] | 483 |  |  | 37
Cc1c(Cl)cccc1-c1noc([C@@H]2CCCN2C(=O)c2ccc(Cl)cc2-n2nccn2)n1 [compound 121] |  | 15 | 145 | 

Compound | IC50 (orexin-1; [1]) [nM] | IC50 (human orexin-2 receptor; [2]) [nM] | IC50 (orexin-1) [nM] | IC50 (human orexin-2 receptor) [nM]
Cc1c(Cl)cccc1-c1noc([C@@H]2CCCN2C(=O)c2ccc(C(F)(F)F)cc2-n2nccn2)n1 [compound 122] |  | 221 | 933 | 
Cc1nc(C(=O)N2CCC[C@H]2c2nc(-c3cccc(Cl)c3C)no2)c(-c2cccc(F)c2)s1 [compound 123] | 133 | 111 |  | 
Cc1nc(C(=O)N2CCC[C@H]2c2nc(-c3cccc(Cl)c3C)no2)c(-c2ccccc2F)s1 [compound 124] | 145 | 77 |  | 
Cc1nc(C(=O)N2CCC[C@H]2c2nc(-c3cccc(Cl)c3C)no2)c(-c2ccc(F)cc2)s1 [compound 125] | 353 | 80 |  | 
Cc1cccc(-c2sc(C)nc2C(=O)N2CCC[C@H]2c2nc(-c3cccc(Cl)c3C)no2)c1 [compound 126] | 221 | 118 |  | 
Cc1ncc(C(=O)N2CCC[C@H]2c2nc(-c3cccc(Cl)c3C)no2)c(-c2cccc(Cl)c2)n1 [compound 127] | 581 |  |  | 125
COc1cccc(-c2nccnc2C(=O)N2CCC[C@H]2c2nc(-c3cccc(Cl)c3C)no2)c1 [compound 128] |  | 181 | 200 | 
Cc1ccc(C(=O)N2CCC[C@H]2c2nc(-c3cccc(Cl)c3C)no2)c(-n2nccn2)c1C [compound 129] |  | 287 | 419 | 
COc1cc(C(=O)N2CCC[C@H]2c2nc(-c3cccc(Cl)c3C)no2)c(-n2nccn2)cc1F [compound 130] | 188 | 16 |  | 
Cc1ccc(-c2ncco2)c(C(=O)N2CCC[C@H]2c2nc(-c3cccc(Cl)c3C)no2)c1 [compound 131] |  |  | 45 | 8
Cc1cc(F)cc(C(=O)N2CCC[C@H]2c2nc(-c3cccc(Cl)c3C)no2)c1-n1nccn1 [compound 132] | 831 |  |  | 250
COc1cc(C(=O)N2CCC[C@H]2c2nc(-c3cccc(Cl)c3C)no2)c(-n2nccn2)cc1OC [compound 133] | 522 | 36 |  | 
Cc1noc(-c2ccccc2C(=O)N2CCC[C@H]2c2nc(-c3ccccc3OC(F)(F)F)no2)n1 [compound 134] | 274 | 219 |  | 
O=C(c1ccccc1-c1ccccc1)N1CCC[C@H]1c1nc(-c2ccccc2OC(F)(F)F)no1 [compound 135, Biphenyl-2-yl-{(S)-2-[3-(2-trifluoromethoxy-phenyl)-[1,2,4]oxadiazol-5-yl]-pyrrolidin-1-yl}-methanone] | 60 | 17 |  | 
Cc1ccc(-c2ccccc2)c(C(=O)N2CCC[C@H]2c2nc(-c3ccccc3OC(F)(F)F)no2)c1 [compound 136, (4-Methyl-biphenyl-2-yl)-{(S)-2-[3-(2-trifluoromethoxy-phenyl)-[1,2,4]oxadiazol-5-yl]-pyrrolidin-1-yl}-methanone] | 12 | 9 |  | 
Cc1ccc(-n2cccn2)c(C(=O)N2CCC[C@H]2c2nc(-c3ccccc3OC(F)(F)F)no2)c1 [compound 137, (5-Methyl-2-pyrazol-1-yl-phenyl)-{(S)-2-[3-(2-trifluoromethoxy-phenyl)-[1,2,4]oxadiazol-5-yl]-pyrrolidin-1-yl}-methanone] | 33 | 23 |  | 
Cc1ccc(-c2ccccn2)c(C(=O)N2CCC[C@H]2c2nc(-c3ccccc3OC(F)(F)F)no2)c1 [compound 138, (5-Methyl-2-pyridin-2-yl-phenyl)-{(S)-2-[3-(2-trifluoromethoxy-phenyl)-[1,2,4]oxadiazol-5-yl]-pyrrolidin-1-yl}-methanone] | 49 | 30 |  | 
Cc1cccc(-c2oc(C)nc2C(=O)N2CCC[C@H]2c2nc(-c3ccccc3OC(F)(F)F)no2)c1 [compound 139, (2-Methyl-5-m-tolyl-oxazol-4-yl)-{(S)-2-[3-(2-trifluoromethoxy-phenyl)-[1,2,4]oxadiazol-5-yl]-pyrrolidin-1-yl}-methanone] | 124 | 62 |  | 
Cc1cccc(-c2ocnc2C(=O)N2CCC[C@H]2c2nc(-c3ccccc3OC(F)(F)F)no2)c1 [compound 140, (5-m-Tolyl-oxazol-4-yl)-{(S)-2-[3-(2-trifluoromethoxy-phenyl)-[1,2,4]oxadiazol-5-yl]-pyrrolidin-1-yl}-methanone] | 100 | 45 |  | 
O=C(c1ccccc1-n1nccn1)N1CCC[C@H]1c1nc(-c2ccccc2OC(F)(F)F)no1 [compound 141, (2-[1,2,3]Triazol-2-yl-phenyl)-{(S)-2-[3-(2-trifluoromethoxy-phenyl)-[1,2,4]oxadiazol-5-yl]-pyrrolidin-1-yl}-methanone] | 59 | 29 |  | 
O=C(c1ncsc1-c1cccc(Cl)c1)N1CCC[C@H]1c1nc(-c2ccccc2OC(F)(F)F)no1 [compound 142] | 123 | 80 |  | 
O=C(c1cc(Cl)ccc1-n1nccn1)N1CCC[C@H]1c1nc(-c2ccccc2OC(F)(F)F)no1 [compound 143] | 47 |  |  | 34
COc1ccc(-n2nccn2)c(C(=O)N2CCC[C@H]2c2nc(-c3ccccc3OC(F)(F)F)no2)c1F [compound 144, (2-Fluoro-3-methoxy-6-[1,2,3]triazol-2-yl-phenyl)-{(S)-2-[3-(2-trifluoromethoxy-phenyl)-[1,2,4]oxadiazol-5-yl]-pyrrolidin-1-yl}-methanone] | 26 | 83 |  | 
Cc1ccc(-n2nccn2)c(C(=O)N2CCC[C@H]2c2nc(-c3ccccc3OC(F)(F)F)no2)c1F [compound 145, (2-Fluoro-3-methyl-6-[1,2,3]triazol-2-yl-phenyl)-{(S)-2-[3-(2-trifluoromethoxy-phenyl)-[1,2,4]oxadiazol-5-yl]-pyrrolidin-1-yl}-methanone] | 19 | 15 |  | 
